Data reported in patent US20250353891A1 (MEDIMMUNE LIMITED, priority 2022, published 2025).
Starred links: 1 amine or outer side, 2 acyl side, 3 side chain; linkers in the order of their positions; H or OH if unused. Non-standard residues stand in square brackets, D forms with d. Residues, ends and D or L forms follow the SMILES beside them. Groups on a side chain read outwards from the residue. *: point of attachment. C20 diacid = O=C(O)CCCCCCCCCCCCCCCCCCC(=O)*; C18 diacid = O=C(O)CCCCCCCCCCCCCCCCC(=O)*; γGlu = O=C(O)[C@H](CCC(=O)[*:2])N[*:1]; αMeF = C[C@](N)(Cc1ccccc1)C(=O)O; PEG4 = NCCOCCOCCOCCOCCC(=O)O; PEG2 = NCCOCCOCCC(=O)O; AEEA = NCCOCCOCC(=O)O; Aib = CC(C)(N)C(=O)O

Experiments:
[1] = biological target: human GLP-1 receptor (hGLP-1R) (Homo sapiens, UniProt P43220); experiment: cAMP production (HTRF) in CHO cells expressing hGLP-1R; type: cell-based; parameters: expressed in transfected cells; details: for EC50: Table 7, peptides modified at position 20, cAMP in CHO hGLP-1R cells, geometric mean, read-out: hGLP-1R EC50; for % Relative Potency Ratio: Table 7, % GLP-1R activity relative to GLP-1 / % GlucR activity relative to glucagon
Sequence of human GLP-1 receptor (hGLP-1R) (P43220 24-463): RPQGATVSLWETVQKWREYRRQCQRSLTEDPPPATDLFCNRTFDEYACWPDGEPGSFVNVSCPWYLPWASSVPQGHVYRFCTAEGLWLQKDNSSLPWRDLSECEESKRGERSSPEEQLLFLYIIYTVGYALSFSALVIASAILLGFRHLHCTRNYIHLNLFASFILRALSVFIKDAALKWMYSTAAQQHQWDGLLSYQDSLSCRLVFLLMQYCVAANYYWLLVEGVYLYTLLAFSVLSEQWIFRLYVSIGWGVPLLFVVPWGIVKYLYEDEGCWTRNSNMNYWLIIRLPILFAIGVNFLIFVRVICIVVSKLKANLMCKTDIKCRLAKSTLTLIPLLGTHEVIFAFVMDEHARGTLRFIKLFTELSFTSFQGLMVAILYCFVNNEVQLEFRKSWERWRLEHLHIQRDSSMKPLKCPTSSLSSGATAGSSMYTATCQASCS
Procedure, shortened: (§1)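 Read-out: HTRF cAMP (anti-cAMP cryptate donor, cAMP-d2 acceptor in conjugate/lysis buffer), converted to % Delta F and fitted by 4-parameter logistic for EC50. Cell densities were 1×10^5 cells/mL (hGLP-1R) or 2×10^5 cells/mL (hGCGR). Stimulation lasted 30 min at room temperature.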

[2] = biological target: human glucagon receptor (hGCGR) (Homo sapiens, UniProt P47871); experiment: cAMP production (HTRF) in CHO cells expressing hGCGR; type: cell-based; parameters: expressed in transfected cells; details: Table 7, peptides modified at position 20; cAMP in CHO hGCGR cells; geometric mean; read-out: hGluc-R EC50
Sequence of human glucagon receptor (hGCGR) (P47871 26-477): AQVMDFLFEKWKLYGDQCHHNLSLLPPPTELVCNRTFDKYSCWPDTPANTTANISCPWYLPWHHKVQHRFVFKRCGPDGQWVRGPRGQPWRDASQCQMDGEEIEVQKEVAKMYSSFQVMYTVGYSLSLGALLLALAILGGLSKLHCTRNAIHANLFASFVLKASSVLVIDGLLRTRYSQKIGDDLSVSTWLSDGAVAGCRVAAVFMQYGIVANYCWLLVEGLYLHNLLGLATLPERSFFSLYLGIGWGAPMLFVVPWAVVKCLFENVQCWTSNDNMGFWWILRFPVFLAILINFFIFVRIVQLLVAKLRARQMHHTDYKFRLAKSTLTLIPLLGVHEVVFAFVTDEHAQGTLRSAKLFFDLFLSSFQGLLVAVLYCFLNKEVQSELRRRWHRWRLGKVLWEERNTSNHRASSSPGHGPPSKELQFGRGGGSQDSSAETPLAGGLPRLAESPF
Procedure, shortened: as §1

Row | SMILES | EC50 [1] [nM] | % Relative Potency Ratio [1] | EC50 [2] [nM]
1 | CC[C@H](C)[C@H](NC(=O)C(C)(C)NC(=O)[C@H](CCC(N)=O)NC(=O)[C@@H](NC(=O)[C@](C)(Cc1ccccc1)NC(=O)[C@H](CC(=O)O)NC(=O)[C@H](CCCCNC(=O)CCOCCOCCNC(=O)CCOCCOCCNC(=O)CC[C@H](NC(=O)CC[C@H](NC(=O)CCCCCCCCCCCCCCCCC(=O)O)C(=O)O)C(=O)O)NC(=O)[C@H](C)NC(=O)[C@H](C)NC(=O)[C@H](CCCNC(=N)N)NC(=O)[C@H](CO)NC(=O)[C@H](CC(=O)O)NC(=O)[C@H](CC(C)C)NC(=O)[C@](C)(Cc1ccccc1)NC(=O)[C@H](CCCCN)NC(=O)[C@H](CO)NC(=O)[C@@H](NC(=O)[C@H](CC(=O)O)NC(=O)[C@H](CO)NC(=O)[C@@H](NC(=O)[C@](C)(Cc1ccccc1)NC(=O)[C@H](CO)NC(=O)CNC(=O)[C@H](Cc1c[nH]cn1)NC(=O)C(C)(C)NC(=O)[C@@H](N)Cc1c[nH]cn1)[C@@H](C)O)C(C)C)C(C)C)C(=O)N[C@@H](C)C(=O)N[C@@H](CC(N)=O)C(=O)N[C@H](C(N)=O)[C@@H](C)O [Peptide 258] (H-H[Aib]HGS[αMeF]TSDVSK[αMeF]LDSRAAK([PEG2-PEG2-γGlu-γGlu-C18 diacid])D[αMeF]VQ[Aib]IANT-NH2; N-terminus assumed) | 0.034 | 5.4 | 0.0931
2 | CC[C@H](C)[C@H](NC(=O)C(C)(C)NC(=O)[C@H](CCC(N)=O)NC(=O)[C@@H](NC(=O)[C@](C)(Cc1ccccc1)NC(=O)[C@H](CC(=O)O)NC(=O)[C@H](CCCCNC(=O)COCCOCCNC(=O)CC[C@H](NC(=O)COCCOCCNC(=O)CCCCCCCCCCCCCCCCC(=O)O)C(=O)O)NC(=O)[C@H](C)NC(=O)[C@H](C)NC(=O)[C@H](CCCNC(=N)N)NC(=O)[C@H](CO)NC(=O)[C@H](CC(=O)O)NC(=O)[C@H](CC(C)C)NC(=O)[C@](C)(Cc1ccccc1)NC(=O)[C@H](CCCCN)NC(=O)[C@H](CO)NC(=O)[C@@H](NC(=O)[C@H](CC(=O)O)NC(=O)[C@H](CO)NC(=O)[C@@H](NC(=O)[C@](C)(Cc1ccccc1)NC(=O)[C@H](CO)NC(=O)CNC(=O)[C@H](Cc1c[nH]cn1)NC(=O)C(C)(C)NC(=O)[C@@H](N)Cc1c[nH]cn1)[C@@H](C)O)C(C)C)C(C)C)C(=O)N[C@@H](C)C(=O)N[C@@H](CC(N)=O)C(=O)N[C@H](C(N)=O)[C@@H](C)O [Peptide 259] (H-H[Aib]HGS[αMeF]TSDVSK[αMeF]LDSRAAK([AEEA-γGlu-AEEA-C18 diacid])D[αMeF]VQ[Aib]IANT-NH2) | 0.0191 | 3.6 | 0.0348
3 | CC[C@H](C)[C@H](NC(=O)C(C)(C)NC(=O)[C@H](CCC(N)=O)NC(=O)[C@@H](NC(=O)[C@](C)(Cc1ccccc1)NC(=O)[C@H](CC(=O)O)NC(=O)[C@H](CCCCNC(=O)CCOCCOCCOCCOCCNC(=O)CC[C@H](NC(=O)CCCCCCCCCCCCCCCCC(=O)O)C(=O)O)NC(=O)[C@H](C)NC(=O)[C@H](C)NC(=O)[C@H](CCCNC(=N)N)NC(=O)[C@H](CO)NC(=O)[C@H](CC(=O)O)NC(=O)[C@H](CC(C)C)NC(=O)[C@](C)(Cc1ccccc1)NC(=O)[C@H](CCCCN)NC(=O)[C@H](CO)NC(=O)[C@@H](NC(=O)[C@H](CC(=O)O)NC(=O)[C@H](CO)NC(=O)[C@@H](NC(=O)[C@](C)(Cc1ccccc1)NC(=O)[C@H](CO)NC(=O)CNC(=O)[C@H](Cc1c[nH]cn1)NC(=O)C(C)(C)NC(=O)[C@@H](N)Cc1c[nH]cn1)[C@@H](C)O)C(C)C)C(C)C)C(=O)N[C@@H](C)C(=O)N[C@@H](CC(N)=O)C(=O)N[C@H](C(N)=O)[C@@H](C)O [Peptide 261] (H-H[Aib]HGS[αMeF]TSDVSK[αMeF]LDSRAAK([PEG4-γGlu-C18 diacid])D[αMeF]VQ[Aib]IANT-NH2; N-terminus assumed) | 0.0162 | 3.6 | 0.0294
4 | CC[C@H](C)[C@H](NC(=O)C(C)(C)NC(=O)[C@H](CCC(N)=O)NC(=O)[C@@H](NC(=O)[C@](C)(Cc1ccccc1)NC(=O)[C@H](CC(=O)O)NC(=O)[C@H](CCCCNC(=O)COCCOCCNC(=O)CC[C@H](NC(=O)CCCCCCCCCCCCCCCCC(=O)O)C(=O)O)NC(=O)[C@H](C)NC(=O)[C@H](C)NC(=O)[C@H](CCCNC(=N)N)NC(=O)[C@H](CO)NC(=O)[C@H](CC(=O)O)NC(=O)[C@H](CC(C)C)NC(=O)[C@](C)(Cc1ccccc1)NC(=O)[C@H](CCCCN)NC(=O)[C@H](CO)NC(=O)[C@@H](NC(=O)[C@H](CC(=O)O)NC(=O)[C@H](CO)NC(=O)[C@@H](NC(=O)[C@](C)(Cc1ccccc1)NC(=O)[C@H](CO)NC(=O)CNC(=O)[C@H](Cc1c[nH]cn1)NC(=O)C(C)(C)NC(=O)[C@@H](N)Cc1c[nH]cn1)[C@@H](C)O)C(C)C)C(C)C)C(=O)N[C@@H](C)C(=O)N[C@@H](CC(N)=O)C(=O)N[C@H](C(N)=O)[C@@H](C)O [Peptide 262] (H-H[Aib]HGS[αMeF]TSDVSK[αMeF]LDSRAAK([AEEA-γGlu-C18 diacid])D[αMeF]VQ[Aib]IANT-NH2) | 0.013 | 1.8 | 0.0117
5 | CC[C@H](C)[C@H](NC(=O)C(C)(C)NC(=O)[C@H](CCC(N)=O)NC(=O)[C@@H](NC(=O)[C@](C)(Cc1ccccc1)NC(=O)[C@H](CC(=O)O)NC(=O)[C@H](CCCCNC(=O)CCOCCOCCOCCOCCNC(=O)CC[C@H](NC(=O)CC[C@H](NC(=O)CCCCCCCCCCCCCCCCC(=O)O)C(=O)O)C(=O)O)NC(=O)[C@H](C)NC(=O)[C@H](C)NC(=O)[C@H](CCCNC(=N)N)NC(=O)[C@H](CO)NC(=O)[C@H](CC(=O)O)NC(=O)[C@H](CC(C)C)NC(=O)[C@](C)(Cc1ccccc1)NC(=O)[C@H](CCCCN)NC(=O)[C@H](CO)NC(=O)[C@@H](NC(=O)[C@H](CC(=O)O)NC(=O)[C@H](CO)NC(=O)[C@@H](NC(=O)[C@](C)(Cc1ccccc1)NC(=O)[C@H](CO)NC(=O)CNC(=O)[C@H](Cc1c[nH]cn1)NC(=O)C(C)(C)NC(=O)[C@@H](N)Cc1c[nH]cn1)[C@@H](C)O)C(C)C)C(C)C)C(=O)N[C@@H](C)C(=O)N[C@@H](CC(N)=O)C(=O)N[C@H](C(N)=O)[C@@H](C)O [Peptide 263] (H-H[Aib]HGS[αMeF]TSDVSK[αMeF]LDSRAAK([PEG4-γGlu-γGlu-C18 diacid])D[αMeF]VQ[Aib]IANT-NH2) | 0.0254 |  | 0.0646

The remaining lines, values ahead:

Row | EC50 [1] [nM] | % Relative Potency Ratio [1] | EC50 [2] [nM] | SMILES
6 | 0.148 | 2.0 | 0.146 | CC[C@H](C)[C@H](NC(=O)C(C)(C)NC(=O)[C@H](CCC(N)=O)NC(=O)[C@@H](NC(=O)[C@](C)(Cc1ccccc1)NC(=O)[C@H](CC(=O)O)NC(=O)[C@H](CCCCNC(=O)COCCOCCNC(=O)COCCOCCNC(=O)CC[C@H](NC(=O)CCCCCCCCCCCCCCCCC(=O)O)C(=O)O)NC(=O)[C@H](C)NC(=O)[C@H](C)NC(=O)[C@H](CCC(N)=O)NC(=O)[C@H](CO)NC(=O)[C@H](CC(=O)O)NC(=O)[C@H](CC(C)C)NC(=O)[C@](C)(Cc1ccccc1)NC(=O)[C@H](CCCCN)NC(=O)[C@H](CO)NC(=O)[C@@H](NC(=O)[C@H](CC(=O)O)NC(=O)[C@H](CO)NC(=O)[C@@H](NC(=O)[C@](C)(Cc1ccccc1)NC(=O)[C@H](CO)NC(=O)CNC(=O)[C@H](Cc1c[nH]cn1)NC(=O)C(C)(C)NC(=O)[C@@H](N)Cc1c[nH]cn1)[C@@H](C)O)C(C)C)C(C)C)C(=O)N[C@@H](C)C(=O)N[C@@H](CC(N)=O)C(=O)N[C@H](C(N)=O)[C@@H](C)O [Peptide 255] (H-H[Aib]HGS[αMeF]TSDVSK[αMeF]LDSQAAK([AEEA-AEEA-γGlu-C18 diacid])D[αMeF]VQ[Aib]IANT-NH2; N-terminus assumed)
7 | 0.346 | 7.5 | 1.31 | CC[C@H](C)[C@H](NC(=O)C(C)(C)NC(=O)[C@H](CCC(N)=O)NC(=O)[C@@H](NC(=O)[C@](C)(Cc1ccccc1)NC(=O)[C@H](CC(=O)O)NC(=O)[C@H](CCCCNC(=O)COCCOCCNC(=O)COCCOCCNC(=O)CC[C@H](NC(=O)CC[C@H](NC(=O)CCCCCCCCCCCCCCCCCCC(=O)O)C(=O)O)C(=O)O)NC(=O)[C@H](C)NC(=O)[C@H](C)NC(=O)[C@H](CCC(N)=O)NC(=O)[C@H](CO)NC(=O)[C@H](CC(=O)O)NC(=O)[C@H](CC(C)C)NC(=O)[C@](C)(Cc1ccccc1)NC(=O)[C@H](CCCCN)NC(=O)[C@H](CO)NC(=O)[C@@H](NC(=O)[C@H](CC(=O)O)NC(=O)[C@H](CO)NC(=O)[C@@H](NC(=O)[C@](C)(Cc1ccccc1)NC(=O)[C@H](CO)NC(=O)CNC(=O)[C@H](Cc1c[nH]cn1)NC(=O)C(C)(C)NC(=O)[C@@H](N)Cc1c[nH]cn1)[C@@H](C)O)C(C)C)C(C)C)C(=O)N[C@@H](C)C(=O)N[C@@H](CC(N)=O)C(=O)N[C@H](C(N)=O)[C@@H](C)O [Peptide 256] (H-H[Aib]HGS[αMeF]TSDVSK[αMeF]LDSQAAK([AEEA-AEEA-γGlu-γGlu-C20 diacid])D[αMeF]VQ[Aib]IANT-NH2)
8 | 0.0331 | 4.6 | 0.0769 | CC[C@H](C)[C@H](NC(=O)C(C)(C)NC(=O)[C@H](CCC(N)=O)NC(=O)[C@@H](NC(=O)[C@](C)(Cc1ccccc1)NC(=O)[C@H](CC(=O)O)NC(=O)[C@H](CCCCNC(=O)COCCOCCNC(=O)CC[C@H](NC(=O)COCCOCCNC(=O)CC[C@H](NC(=O)CCCCCCCCCCCCCCCCC(=O)O)C(=O)O)C(=O)O)NC(=O)[C@H](C)NC(=O)[C@H](C)NC(=O)[C@H](CCCNC(=N)N)NC(=O)[C@H](CO)NC(=O)[C@H](CC(=O)O)NC(=O)[C@H](CC(C)C)NC(=O)[C@](C)(Cc1ccccc1)NC(=O)[C@H](CCCCN)NC(=O)[C@H](CO)NC(=O)[C@@H](NC(=O)[C@H](CC(=O)O)NC(=O)[C@H](CO)NC(=O)[C@@H](NC(=O)[C@](C)(Cc1ccccc1)NC(=O)[C@H](CO)NC(=O)CNC(=O)[C@H](Cc1c[nH]cn1)NC(=O)C(C)(C)NC(=O)[C@@H](N)Cc1c[nH]cn1)[C@@H](C)O)C(C)C)C(C)C)C(=O)N[C@@H](C)C(=O)N[C@@H](CC(N)=O)C(=O)N[C@H](C(N)=O)[C@@H](C)O [Peptide 260] (H-H[Aib]HGS[αMeF]TSDVSK[αMeF]LDSRAAK([AEEA-γGlu-AEEA-γGlu-C18 diacid])D[αMeF]VQ[Aib]IANT-NH2)
